# PMC9619220 (Computational and Structural Biotechnology Journal, 2022)
# B1: TgPDE1 (Toxoplasma gondii) (protein)
# chain: MRLREHSLLLCVDAMSRDSPVASPAHSGVFGPSADAEVSEVFSLPSLSAVPGAASASSLSRENSLVSSRRASPSVSPPAGSPLWRLVRRCGQGEGERENVERCRLRERREECGAARRGPPASAATSDCSCPSAGDRRRVQSRRRRARTFQGRSFCGNHVSTEAEREGETEGEEETEGEEGREEYDSKRRGRLARRLGRRFVIAAAERGRKREGEETIVLRGNQGECWQEAQRTADSPDCSSSSVCCFGGSCSTASQCCACMRLASVSCPSPRSSFSTFHCSLPAVSSASAAFVCPRESPGSDSNSSPSCASSRGFSPSSPKATVSSSRPSSSSASPLRSSLSAPSGLFPVGSGCSSDVCVSVPLPAMFRGCRVHSSAPSSRTEQGTALLTGAPPSANELEAASAMANPTNSSRFSRVKTVSFATLSECGSSHISRRSDSASEPEAEREKPGLCSMRVARRESSPAARSPGRQSERRGTDSSCTSLPQRSDRAGRDRVGSRGSAEQRSSTSSRRVSDHSRAEAGLWSAGLGDSGASLEPDLESRSAFLRRCRARLAAARRKVCQAFQSLAEHDLVFRMKEDLAQMRHESSLRSVFADGCRERSGVEMSERTRLSVGGGTGRHLSVGTSTHKEGSTHKEGSEKERIRDGGSASPSTHLSRSGSGDVILRRFPLKFVDRGLEDLFADNINRWMATRLLMGVLSLVVTSVMWPLMAWSFNLLDAFNHSEPLGILFHINMAVTVFVAVLFIVTKRCRHLAEHAELIADGGTFLVVTIWGIWNTTASYILEHSYVQDVIGSAYPMHPADAPISLEKTSAWSTSLEASSAVAYLYGLLLIVQLDVVYPSRTRRTWQVHLMFFGFSTASIVIRGALNPDFVPVPFVVIRALTYLMLTVFLFIGRHATELQQRHTFYNWLTTRKRMDRLESDLKRQREKVKVSTAVEQLVHMVKHCMESCQTVESEVGSELHVSYRSLLIDCHQTLSRCLSILTHTSDLYTVQFGDLDSDAHRDIIQAFLNNHNSSPADWTRVTTAAYTRGVEDGCWSASDASSEAKSGDLGTPFAGSEALALVRRDSSHSWASSRGASAWPIQANWTGTLDGVHVHAFLHAVPEACGGAATPEHDGLRGEGLGDLGRASPRRQAGRQLTRLDEGRERDSEPEDLTDDGDSAEPPKNAASETEEKVSVPDNGRKTPTQALGEMKPGLTSKGLHDTLARVRASTHREVESRGRERRGDSAPCSSPSQRLTPQSLADFQARLRYEALIKLVHTSPRTPELSLGIPVSEEAARDWNFDCLRHAQLSPTPLVDVGYALLHRTSEDLRLPPDVVLRFLTAVEIQYNHVPYHNCIHGLMVAQKMVALTEVLELSQSIGSRDRALVVVAGLCHDIGHPGRNNALFINALDPVAVLYNDKSVLENYHSCLTFKTLELPDCDIFFSLRTKDYHMVRSLIIDLILATDMKNHFETVSRFRVRRNALDFDLSSEEDFWFAVKIIMKCADLSHCSVPWSQHFQWCQRLSVEFYDQGDEEVARHLPMSPLCDREKHSEVAKSQLGFMSFVAVPLFEELMAIDGTGNIEKYCISVMKTNASHWEALSSAAVPVPLLGEAPSPDVAPPLLHLIDGSGAAAVHPGSKAAEIANRYASSTVTTLDLTCLVYRTQLNRARRSSQQSGRRVSEGTSA
# notes: native smHA-tagged TgPDE1 immunoprecipitated from tachyzoites
# Columns and labels:
# [1] = molecular target: T1, TgPDE1 (Toxoplasma gondii, UniProt A0A7J6K721); assay: colorimetric PDE assay on immunoprecipitated enzyme, dose-response (cAMP hydrolysis; […] for cGMP); format: biochemical
# T1 construct: gene TGRH88_036470; native smHA-tagged TgPDE1 immunoprecipitated from tachyzoites
# [2] = molecular target: T1, TgPDE1; assay: colorimetric PDE assay, single concentration ([…]), moderate effect; format: biochemical
# [3] = molecular target: T2, TgPDE2 (Toxoplasma gondii, UniProt A0A7J6KGW2); assay: colorimetric PDE assay, single concentration ([…]), partial inhibition of cAMP hydrolysis; format: biochemical
# T2 construct: gene TGRH88_018390; native smHA-tagged TgPDE2 immunoprecipitated from tachyzoites
# [4] = molecular target: T1, TgPDE1; assay: colorimetric PDE assay on immunoprecipitated enzyme, dose-response (cAMP hydrolysis); format: biochemical
# [5] = substrate: [H][C@@]12COP(=O)(O)O[C@@]1([H])[C@@H](O)[C@H](n1cnc3c(=O)[nH]c(N)nc31)O2; assay: Michaelis-Menten kinetics, colorimetric PDE assay (Km); format: biochemical, Toxoplasma gondii
molecule,measurement,setting,value
"CC(C)c1n[nH]c2c(=O)[nH]c(Cc3ccccc3)nc12 [BIPPO, 5-benzyl-3-isopropyl-1H-pyrazolo (4,3-d) pyrimidin-7(6H)-one]",IC50,[1],310 nM
"CC(C)Cn1c(=O)n(C)c(=O)c2[nH]cnc21 [IBMX, 3-isobutyl-1-methylxanthine]","colorimetric PDE assay, single concentration (100 μM), moderate effect",[2],The effect of IBMX on TgPDE1 was moderate.
same,"colorimetric PDE assay, single concentration (100 μM), partial inhibition of cAM",[3],hydrolysis of cAMP by TgPDE2 was sensitive to partial inhibition by IBMX but to none of the other drugs
"CCCOc1ccccc1-c1nc2nn[nH]c2c(=O)[nH]1 [zaprinast, 1,4-Dihydro-5-(2-propoxyphenyl)-7H-1,2,3-triazolo (4,5-d) pyrimidin-7-one]",IC50,[4],1490 nM
B1,Km,[5],18 µM
